Data from patent EP0242417B1, “Morphinane-skeletoned hydrazone derivatives, process for preparing them, pharmaceutical composition and use” (ALKALOIDA VEGYéSZETI GYáR, priority 1986, dated 1987).

Experiments:
[1] = Sensitivity to light of the isolated product
[2] = Hot plate test (analgetic activity); format: in vivo; settings: sc
[3] = Tail Flick test (analgetic activity); format: in vivo; settings: sc
[4] = compared with naloxone; cited from earlier work
opiate receptors = assay: Competition for tritiated Naloxon specific binding in rat brain membrane preparates; settings: tritiated Naloxon bond (1 nanomole) taken as 100 %
Protocol: The effect of the 10⁻⁷ and 10⁻⁵ M concentration of the compounds was examined to tritiated Naloxon bond in rat brain membrane preparates. […]
If the inhibition is high, i.e. the value of the specific bond of the labelled Naloxon is low, the compounds bind to the opiate receptors with high affinity.
A comparative data the tritiated Naloxon bond (concentration: 1 nanomole) was taken as 100 % (without excipients).
The membrane preparate was prepared according to the following article: G.W. Pasternak, H.A. Wilson, S.H. Snyder: Molecular Pharmacol. 11 340-51 (1975).
The specific radioactivity of the labelled Naloxon was 72.4 Ci/mmole [G. Töth, M. Kramer, F. Sirokmán, A. Borsodi, A. Rónai: J. Label. Comp. Radiopharm. 19 1021 (1976)].

[5] = compound concentration 10⁻⁵ mol
[6] = compound concentration 10⁻⁷ mol

SMILES | sensitivity to light [1] | Hot plate test ED₅₀ [2] [mg/kg.sc] | Tail Flick ED₅₀ [3] [mg/kg.sc.] | membrane affinity [4] | residual tritiated specific bonds of Naloxon (opiate receptors; [5]) [%] | residual tritiated specific bonds of Naloxon (opiate receptors; [6]) [%]
COc1ccc2c3c1O[C@H]1C(=NNc4ccccc4)C=C[C@@]4(O)[C@@H](C2)N(C)CC[C@]314 [14-OH-codeinone phenylhydrazone] | sensitive to light |  |  |  |  | 
CN1CC[C@]23c4c5ccc(O)c4O[C@H]2[C@@H](O)C=C[C@H]3[C@H]1C5 [Morphine, reference compound] |  | 3.6 | 5.0 |  |  | 
C=CCN1CCC23c4c5ccc(O)c4OC2C(=NNc2ccccc2)CCC3(O)C1C5 (stereo not shown) [naloxone phenylhydrazone] |  |  |  | much weaker membrane affinity than naloxone |  | 
CN1CC[C@]23c4c5ccc(O)c4O[C@H]2C(=NNC(N)=O)CC[C@@]3(O)[C@H]1C5 [Oxymorphone semicarbazone, 14-OH-dihydromarphinone semicarbazone] |  | 0.9 | 0.9 |  |  | 
COc1ccc2c3c1O[C@H]1C(=NNC(N)=S)CC[C@H]4[C@@H](C2)N(C)CC[C@]314 [Dihydrocodeinone thiosemicarbazone] |  | 1.7 | 0.6 |  |  | 
COc1ccc2c3c1O[C@H]1C(=NN)C=C[C@@]4(O)[C@@H](C2)N(C)CC[C@]314 [Oxycodeinone hydrazone, 14-OH-codeinone hydrazone] |  |  |  |  | 13±7 | 92±25
COc1ccc2c3c1O[C@H]1C(=NNC(N)=O)CC[C@H]4[C@@H](C2)N(C)CC[C@]314 [Dihydrocodeinone semicarbazone] |  | 0.38 | 0.35 |  | 9±7 | 43±4
CN1CC[C@]23c4c5ccc(O)c4O[C@H]2C(=NNc2ccc([N+](=O)[O-])cc2[N+](=O)[O-])CC[C@H]3[C@H]1C5 [Dihydromorphinone dinitrophenylhydrazone, Dihydromorphinone-2,4-dinitrophenyl hydrazone] |  | 0.27 | 0.18 |  | 0.5±0.7 | 17±2
CN1CC[C@]23c4c5ccc(O)c4O[C@H]2C(=NNC(N)=S)CC[C@H]3[C@H]1C5 [Dihydromorphinone thiosemicarbazone] |  |  |  |  | 19±4 | 16±5
CN1CC[C@]23c4c5ccc(O)c4O[C@H]2C(=NNC(N)=O)CC[C@H]3[C@H]1C5 [Dihydromorphinone semicarbazone] |  | 0.085 | 0.13 |  | 4±6 | 69±13
CN1CC[C@]23c4c5ccc(O)c4O[C@H]2C(=NNc2ccc([N+](=O)[O-])cc2[N+](=O)[O-])CC[C@@]3(O)[C@H]1C5 [Oxymorphone dinitrophenylhydrazone, 14-OH-dihydromorphinone-2,4-dinitrophenyl hydrazone] |  | 0.37 | 0.27 |  | 1±0.3 | 33±1
CN1CC[C@]23c4c5ccc(O)c4O[C@H]2C(=NNc2ccccc2)CC[C@H]3[C@H]1C5 [Dihydromorphinone phenylhydrazone] |  |  |  |  | 10±14 | 4±5
CN1CC[C@]23c4c5ccc(O)c4O[C@H]2C(=NNC(N)=S)CC[C@@]3(O)[C@H]1C5 [Oxymorphone thiosemicarbazone, 14-OH dihydromorphine thiosemicarbazone] |  |  |  |  | 0 | 37±9
COc1ccc2c3c1O[C@H]1C(=NNc4ccccc4)CC[C@H]4[C@@H](C2)N(C)CC[C@]314 [Dihydrocodeinone phenylhydrazone] |  | 2.4 | 2.3 |  | 5±1 | 75±9
COc1ccc2c3c1O[C@H]1C(=NNc4ccccc4)CC[C@@]4(O)[C@@H](C2)N(C)CC[C@]314 [Oxycodone phenylhydrazone, 14-OH-dihydrocodeinone phenylhydrazone] |  | 0.8 | 1.2 |  |  | 
COc1ccc2c3c1O[C@H]1C(=NNC(N)=O)CC[C@@]4(O)[C@@H](C2)N(C)CC[C@]314 [Oxycodone semicarbazone, 14-OH-dihydrocodeinonesemicarbazone] |  | 0.58 | 0.45 |  |  | 
